{"source": "patent EP4740962A1", "about": "“PHARMACEUTICAL COMPOSITION, FORMULATION CONTAINING PHARMACEUTICAL COMPOSITION, KIT CONTAINING PHARMACEUTICAL COMPOSITION, PREPARATION METHOD FOR PHARMACEUTICAL COMPOSITION, AND USE OF PHARMACEUTICAL COMPOSITION” (Shanghai WD Pharmaceutical Co., Ltd, priority 2023, dated 2025)", "key": {"[1]": {"assay": "Compatibility study of carbidopa-levodopa granule raw materials and excipients at 40°C/75% RH", "type": "physicochemical", "source_text": "(§1) After preparation into the formulation, there was a risk of exceeding the limit for related substances in terms of stability."}, "[2]": {"assay": "Compatibility study of voriconazole granule raw material and excipients at 40°C/75% RH", "type": "physicochemical", "source_text": "as §1"}}}
{"smiles": "C[C@@](Cc1ccc(O)c(O)c1)(NN)C(=O)O", "note": "[Carbidopa]", "values": [{"measurement": "Appearance", "setting": "[1]", "result": "No change"}, {"measurement": "Total impurities (%)", "setting": "[1]; 0 Days", "result": 0.10, "unit": "%"}, {"measurement": "Total impurities (%)", "setting": "[1]; 14 Days", "result": 0.08, "unit": "%"}, {"measurement": "Total impurities (%)", "setting": "[1]; 28 Days", "result": 0.07, "unit": "%"}]}
{"smiles": "N[C@@H](Cc1ccc(O)c(O)c1)C(=O)O", "note": "[Levodopa]", "values": [{"measurement": "Appearance", "setting": "[1]", "result": "No change"}, {"measurement": "Total impurities (%)", "setting": "[1]; 0 Days", "result": "Not detected"}, {"measurement": "Total impurities (%)", "setting": "[1]; 14 Days", "result": 0.03, "unit": "%"}, {"measurement": "Total impurities (%)", "setting": "[1]; 28 Days", "result": 0.07, "unit": "%"}]}
{"smiles": "C[C@@H](c1ncncc1F)[C@](O)(Cn1cncn1)c1ccc(F)cc1F", "note": "[Voriconazole]", "values": [{"measurement": "Appearance", "setting": "[2]", "result": "No change"}, {"measurement": "Total impurities (%)", "setting": "[2]; 0 Days", "result": 0.01, "unit": "%"}, {"measurement": "Total impurities (%)", "setting": "[2]; 14 Days", "result": 0.01, "unit": "%"}, {"measurement": "Total impurities (%)", "setting": "[2]; 28 Days", "result": 0.01, "unit": "%"}]}
